# Experimental data published in ChEMBL document CHEMBL1201862, “PubChem BioAssay data set” (2004).
# Activity calls are given as the source filed them.
# Columns and labels:
# Ion channel NompC = Ion channel NompC (Danio rerio, UniProt Q7T1G6); experiment: Fluorescence counterscreen assay for TRPML3 agonists: dose response cell-based high-throughput screening assay to identify agonists of the transient receptor potential channel N1 (TRPN1). [Related pubchem assays: 1526, 1424, 1448 ]; assay type: functional
# Mucolipin-3 = Mucolipin-3 (Homo sapiens, UniProt Q8TDD5); experiment: Dose response cell-based high-throughput screening assay for agonists of the transient receptor potential channel ML3 (TRPML3). [Related pubchem assays: 1526, 1424, 1448 ]; assay type: functional
# [1] = target: Transitional endoplasmic reticulum ATPase (Homo sapiens, UniProt P55072, C522A); experiment: C522A mutant p97 ATPase inhibitors, dose response, counter-screen for p97 inhibitor project, biochemical, luminescence (AID 1544)
# [2] = target: Transitional endoplasmic reticulum ATPase (Homo sapiens, UniProt P55072); experiment: p97 ATPase inhibitors, dose response, biochemical (AID 1534)
# [3] = target: Mothers against decapentaplegic homolog 3 (Homo sapiens, UniProt P84022); experiment: Smad3 binding inhibitors, lysate ELISA, dose response, cell lysate, secondary confirmation, chemiluminescent ELISA, HEK293 lysate (AID 1058); assay type: functional
# [4] = target: T1, Neuropeptide Y receptor type 1 (Homo sapiens, UniProt P25929); experiment: NPY-Y1 receptor antagonist potency, dose response, cell-based (AID 1277); assay type: functional
# T1 sequence (P25929 whole entry): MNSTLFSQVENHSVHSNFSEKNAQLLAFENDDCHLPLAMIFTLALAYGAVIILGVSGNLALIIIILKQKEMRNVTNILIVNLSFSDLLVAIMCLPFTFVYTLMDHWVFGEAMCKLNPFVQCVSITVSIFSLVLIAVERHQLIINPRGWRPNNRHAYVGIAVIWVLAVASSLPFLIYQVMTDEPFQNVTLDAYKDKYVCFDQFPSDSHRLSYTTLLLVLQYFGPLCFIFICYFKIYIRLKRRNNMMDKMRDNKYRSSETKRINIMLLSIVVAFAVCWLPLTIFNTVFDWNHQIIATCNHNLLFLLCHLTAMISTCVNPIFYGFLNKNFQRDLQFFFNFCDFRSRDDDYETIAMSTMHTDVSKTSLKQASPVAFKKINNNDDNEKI
# [5] = target: T2, Neuropeptide Y receptor type 2 (Homo sapiens, UniProt P49146); experiment: NPY-Y2 antagonist potency, selectivity check, dose response, counter-screen for NPY-Y1 antagonist project, cell-based (AID 1278); assay type: functional
# T2 sequence (P49146 whole entry): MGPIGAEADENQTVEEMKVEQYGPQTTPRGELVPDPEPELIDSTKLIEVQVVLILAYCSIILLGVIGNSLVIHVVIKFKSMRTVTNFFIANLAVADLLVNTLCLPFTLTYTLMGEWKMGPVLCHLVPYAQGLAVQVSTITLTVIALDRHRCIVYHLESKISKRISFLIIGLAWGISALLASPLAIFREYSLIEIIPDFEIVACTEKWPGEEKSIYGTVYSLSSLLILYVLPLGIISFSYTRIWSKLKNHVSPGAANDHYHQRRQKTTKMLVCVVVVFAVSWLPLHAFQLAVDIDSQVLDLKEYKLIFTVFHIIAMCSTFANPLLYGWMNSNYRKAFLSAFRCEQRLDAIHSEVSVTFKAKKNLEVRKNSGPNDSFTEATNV
# [6] = THP-1 cell cytotoxicity, dose response, cytotoxicity control for Vif-APOBEC3G degradation inhibitor project, THP-1 cells (AID 1117359); assay type: functional; conditions: Human immunodeficiency virus 1, THP-1
# [7] = cytotoxicity in HPDE-C7 cells, cell-based, fluorescence, HTS (AID 430); assay type: functional; conditions: Homo sapiens
# [8] = target: T3, RNA-binding protein pos-1 (Caenorhabditis elegans, UniProt G5EF15); experiment: inhibitors of POS-1/mex-3 RNA binding, dose response, biochemical, fluorescence polarization (AID 1964);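 note: purified POS-1 fused to maltose binding protein made in E. coli; potency of compounds blocking POS-1 binding to fluorescent RNA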
# T3 sequence (G5EF15 whole entry): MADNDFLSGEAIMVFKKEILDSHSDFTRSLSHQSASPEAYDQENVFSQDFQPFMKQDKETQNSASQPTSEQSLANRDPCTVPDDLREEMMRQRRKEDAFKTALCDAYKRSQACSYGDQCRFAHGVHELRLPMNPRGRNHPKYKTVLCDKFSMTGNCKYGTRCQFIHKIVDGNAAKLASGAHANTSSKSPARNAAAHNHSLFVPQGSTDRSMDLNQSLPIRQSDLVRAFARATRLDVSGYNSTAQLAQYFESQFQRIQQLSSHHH
# Procathepsin L = Procathepsin L (Homo sapiens, UniProt P07711)
# Aspartyl aminopeptidase = target: T4, Aspartyl aminopeptidase (Plasmodium falciparum 3D7, UniProt Q8I2J3)
# T4 sequence (Q8I2J3 whole entry): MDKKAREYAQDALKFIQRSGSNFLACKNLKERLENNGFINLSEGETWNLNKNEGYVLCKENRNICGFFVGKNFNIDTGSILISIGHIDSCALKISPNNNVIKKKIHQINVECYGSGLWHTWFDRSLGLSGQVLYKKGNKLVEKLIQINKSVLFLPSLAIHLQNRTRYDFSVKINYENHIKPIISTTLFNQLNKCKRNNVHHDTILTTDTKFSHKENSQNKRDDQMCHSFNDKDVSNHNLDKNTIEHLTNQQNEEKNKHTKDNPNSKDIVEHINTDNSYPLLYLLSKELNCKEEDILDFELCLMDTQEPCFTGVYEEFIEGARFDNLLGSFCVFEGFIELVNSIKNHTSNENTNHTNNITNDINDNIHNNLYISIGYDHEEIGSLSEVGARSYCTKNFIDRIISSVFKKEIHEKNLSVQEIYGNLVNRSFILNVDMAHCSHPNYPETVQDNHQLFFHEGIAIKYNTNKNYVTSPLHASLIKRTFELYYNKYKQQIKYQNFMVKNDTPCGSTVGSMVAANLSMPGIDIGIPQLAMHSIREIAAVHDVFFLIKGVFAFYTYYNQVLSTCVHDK
# [9] = cytotoxicity in KRAS-transformed pancreatic duct cells, primary screen, cell-based, fluorescence, HTS (AID 431); assay type: functional; conditions: Homo sapiens;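 note: cell line used: HPDE-C7K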
# [10] = target: FAD-linked sulfhydryl oxidase ALR (Homo sapiens, UniProt P55789); experiment: inhibitors of human ALR sulfhydryl oxidase, dose response, biochemical, H2O2 detection, luminescence, cherry-pick (AID 493248)
# Large T antigen = Large T antigen (Simian virus 40, UniProt P03070); assay type: functional, Betapolyomavirus macacae;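 note: Confirmatory-stage PubChem screen for compounds that inhibit SV40 T antigen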
# [11] = target: T5, Zinc finger protein mex-5 (Caenorhabditis elegans, UniProt Q9XUB2); experiment: MEX-5/TCR-2 RNA interaction inhibitors, dose response, biochemical, C. elegans, fluorescence polarization (AID 1960)
# T5 sequence (Q9XUB2 whole entry): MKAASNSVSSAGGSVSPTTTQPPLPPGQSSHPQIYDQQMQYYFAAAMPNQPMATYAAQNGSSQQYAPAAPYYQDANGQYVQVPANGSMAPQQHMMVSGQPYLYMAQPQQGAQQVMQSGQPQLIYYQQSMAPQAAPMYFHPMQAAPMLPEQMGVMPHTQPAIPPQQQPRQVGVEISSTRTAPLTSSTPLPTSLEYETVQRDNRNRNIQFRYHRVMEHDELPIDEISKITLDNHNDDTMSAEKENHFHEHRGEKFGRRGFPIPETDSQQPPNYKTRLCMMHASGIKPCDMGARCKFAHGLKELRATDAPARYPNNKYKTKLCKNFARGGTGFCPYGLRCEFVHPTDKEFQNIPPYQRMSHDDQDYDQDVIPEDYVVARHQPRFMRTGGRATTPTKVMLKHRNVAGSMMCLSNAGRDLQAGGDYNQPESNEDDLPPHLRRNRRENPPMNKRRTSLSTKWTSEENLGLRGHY
# Sequence of Transitional endoplasmic reticulum ATPase (Homo sapiens, UniProt P55072) (P55072 whole entry): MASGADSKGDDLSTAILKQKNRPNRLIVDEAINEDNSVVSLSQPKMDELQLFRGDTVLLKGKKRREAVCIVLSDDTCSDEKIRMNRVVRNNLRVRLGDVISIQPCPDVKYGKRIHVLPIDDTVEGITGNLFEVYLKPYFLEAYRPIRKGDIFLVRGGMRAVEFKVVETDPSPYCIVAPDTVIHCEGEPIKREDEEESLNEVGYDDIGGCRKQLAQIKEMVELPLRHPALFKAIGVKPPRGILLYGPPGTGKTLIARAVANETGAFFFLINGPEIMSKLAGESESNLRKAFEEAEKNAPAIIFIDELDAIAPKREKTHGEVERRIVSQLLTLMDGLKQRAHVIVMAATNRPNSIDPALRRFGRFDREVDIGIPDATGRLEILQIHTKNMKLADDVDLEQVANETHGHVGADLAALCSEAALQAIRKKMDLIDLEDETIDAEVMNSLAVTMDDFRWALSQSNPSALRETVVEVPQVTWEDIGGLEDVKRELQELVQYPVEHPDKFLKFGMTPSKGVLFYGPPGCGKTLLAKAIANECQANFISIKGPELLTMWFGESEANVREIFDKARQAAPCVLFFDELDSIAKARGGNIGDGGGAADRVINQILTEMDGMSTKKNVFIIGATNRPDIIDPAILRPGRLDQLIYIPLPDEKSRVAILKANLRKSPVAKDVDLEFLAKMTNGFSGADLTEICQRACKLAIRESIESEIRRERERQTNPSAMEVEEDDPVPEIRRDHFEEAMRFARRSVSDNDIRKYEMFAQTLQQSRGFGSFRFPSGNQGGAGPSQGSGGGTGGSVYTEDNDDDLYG
# Sequence of Mucolipin-3 (Q8TDD5 whole entry): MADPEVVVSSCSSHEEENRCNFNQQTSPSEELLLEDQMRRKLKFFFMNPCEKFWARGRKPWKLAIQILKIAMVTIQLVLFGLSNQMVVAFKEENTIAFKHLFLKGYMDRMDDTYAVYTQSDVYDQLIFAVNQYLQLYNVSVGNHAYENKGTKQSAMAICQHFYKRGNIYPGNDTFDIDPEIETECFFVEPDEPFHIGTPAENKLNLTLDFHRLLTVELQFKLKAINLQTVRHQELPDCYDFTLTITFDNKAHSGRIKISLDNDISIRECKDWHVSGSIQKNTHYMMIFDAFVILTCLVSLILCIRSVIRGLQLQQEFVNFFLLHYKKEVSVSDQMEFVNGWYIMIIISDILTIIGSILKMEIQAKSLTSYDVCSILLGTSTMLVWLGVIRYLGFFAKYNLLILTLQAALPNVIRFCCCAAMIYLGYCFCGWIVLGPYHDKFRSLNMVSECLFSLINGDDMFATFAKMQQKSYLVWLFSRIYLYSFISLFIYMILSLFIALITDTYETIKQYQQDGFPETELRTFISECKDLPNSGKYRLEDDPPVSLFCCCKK
# Sequence of Large T antigen (P03070 whole entry): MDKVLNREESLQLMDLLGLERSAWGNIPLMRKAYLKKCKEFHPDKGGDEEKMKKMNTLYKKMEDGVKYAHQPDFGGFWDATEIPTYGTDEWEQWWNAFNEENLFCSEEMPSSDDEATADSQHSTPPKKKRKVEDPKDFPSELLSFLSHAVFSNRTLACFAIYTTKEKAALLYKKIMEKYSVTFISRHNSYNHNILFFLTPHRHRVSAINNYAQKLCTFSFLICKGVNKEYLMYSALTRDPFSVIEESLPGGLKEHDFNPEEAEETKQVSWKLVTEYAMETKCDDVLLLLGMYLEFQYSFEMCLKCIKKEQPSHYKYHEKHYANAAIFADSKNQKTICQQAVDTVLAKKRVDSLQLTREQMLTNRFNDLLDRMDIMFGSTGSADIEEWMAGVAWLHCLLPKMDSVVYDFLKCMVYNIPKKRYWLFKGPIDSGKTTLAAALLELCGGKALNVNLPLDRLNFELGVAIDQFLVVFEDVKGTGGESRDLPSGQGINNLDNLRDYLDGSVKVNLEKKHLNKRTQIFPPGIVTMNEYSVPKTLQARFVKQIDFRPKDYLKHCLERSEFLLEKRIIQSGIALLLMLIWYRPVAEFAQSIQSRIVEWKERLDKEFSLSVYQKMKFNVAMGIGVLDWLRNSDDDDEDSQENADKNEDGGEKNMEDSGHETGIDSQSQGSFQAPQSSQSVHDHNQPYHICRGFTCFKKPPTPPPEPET
# Sequence of Transitional endoplasmic reticulum ATPase (Homo sapiens, UniProt P55072, C522A) (P55072 2-806 C522A limits assumed): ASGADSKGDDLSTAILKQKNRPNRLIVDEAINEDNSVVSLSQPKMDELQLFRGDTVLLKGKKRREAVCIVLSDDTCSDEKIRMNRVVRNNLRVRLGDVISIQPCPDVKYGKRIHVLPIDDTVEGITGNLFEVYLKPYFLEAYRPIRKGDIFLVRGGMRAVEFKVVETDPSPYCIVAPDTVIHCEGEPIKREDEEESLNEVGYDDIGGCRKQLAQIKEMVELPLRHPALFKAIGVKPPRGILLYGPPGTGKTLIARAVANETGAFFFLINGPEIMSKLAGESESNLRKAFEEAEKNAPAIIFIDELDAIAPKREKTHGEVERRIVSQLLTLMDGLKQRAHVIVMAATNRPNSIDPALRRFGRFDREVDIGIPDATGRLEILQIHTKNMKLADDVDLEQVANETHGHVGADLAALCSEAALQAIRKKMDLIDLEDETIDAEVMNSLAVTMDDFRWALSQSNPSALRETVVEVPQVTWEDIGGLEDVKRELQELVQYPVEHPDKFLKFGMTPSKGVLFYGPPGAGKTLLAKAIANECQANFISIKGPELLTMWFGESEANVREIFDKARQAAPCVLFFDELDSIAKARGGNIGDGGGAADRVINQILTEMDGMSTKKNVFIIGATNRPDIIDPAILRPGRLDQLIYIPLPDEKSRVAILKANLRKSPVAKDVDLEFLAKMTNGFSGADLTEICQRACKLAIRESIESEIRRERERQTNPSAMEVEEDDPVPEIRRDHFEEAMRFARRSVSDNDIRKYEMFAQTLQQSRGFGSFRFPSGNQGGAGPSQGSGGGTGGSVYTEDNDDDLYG
# Sequence of FAD-linked sulfhydryl oxidase ALR (P55789 whole entry): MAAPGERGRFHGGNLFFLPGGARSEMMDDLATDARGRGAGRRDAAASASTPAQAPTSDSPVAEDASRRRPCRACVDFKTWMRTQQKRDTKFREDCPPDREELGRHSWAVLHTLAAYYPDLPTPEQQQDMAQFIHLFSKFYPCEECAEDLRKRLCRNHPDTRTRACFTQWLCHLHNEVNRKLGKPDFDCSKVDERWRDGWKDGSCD
# Sequence of Ion channel NompC (Q7T1G6 whole entry): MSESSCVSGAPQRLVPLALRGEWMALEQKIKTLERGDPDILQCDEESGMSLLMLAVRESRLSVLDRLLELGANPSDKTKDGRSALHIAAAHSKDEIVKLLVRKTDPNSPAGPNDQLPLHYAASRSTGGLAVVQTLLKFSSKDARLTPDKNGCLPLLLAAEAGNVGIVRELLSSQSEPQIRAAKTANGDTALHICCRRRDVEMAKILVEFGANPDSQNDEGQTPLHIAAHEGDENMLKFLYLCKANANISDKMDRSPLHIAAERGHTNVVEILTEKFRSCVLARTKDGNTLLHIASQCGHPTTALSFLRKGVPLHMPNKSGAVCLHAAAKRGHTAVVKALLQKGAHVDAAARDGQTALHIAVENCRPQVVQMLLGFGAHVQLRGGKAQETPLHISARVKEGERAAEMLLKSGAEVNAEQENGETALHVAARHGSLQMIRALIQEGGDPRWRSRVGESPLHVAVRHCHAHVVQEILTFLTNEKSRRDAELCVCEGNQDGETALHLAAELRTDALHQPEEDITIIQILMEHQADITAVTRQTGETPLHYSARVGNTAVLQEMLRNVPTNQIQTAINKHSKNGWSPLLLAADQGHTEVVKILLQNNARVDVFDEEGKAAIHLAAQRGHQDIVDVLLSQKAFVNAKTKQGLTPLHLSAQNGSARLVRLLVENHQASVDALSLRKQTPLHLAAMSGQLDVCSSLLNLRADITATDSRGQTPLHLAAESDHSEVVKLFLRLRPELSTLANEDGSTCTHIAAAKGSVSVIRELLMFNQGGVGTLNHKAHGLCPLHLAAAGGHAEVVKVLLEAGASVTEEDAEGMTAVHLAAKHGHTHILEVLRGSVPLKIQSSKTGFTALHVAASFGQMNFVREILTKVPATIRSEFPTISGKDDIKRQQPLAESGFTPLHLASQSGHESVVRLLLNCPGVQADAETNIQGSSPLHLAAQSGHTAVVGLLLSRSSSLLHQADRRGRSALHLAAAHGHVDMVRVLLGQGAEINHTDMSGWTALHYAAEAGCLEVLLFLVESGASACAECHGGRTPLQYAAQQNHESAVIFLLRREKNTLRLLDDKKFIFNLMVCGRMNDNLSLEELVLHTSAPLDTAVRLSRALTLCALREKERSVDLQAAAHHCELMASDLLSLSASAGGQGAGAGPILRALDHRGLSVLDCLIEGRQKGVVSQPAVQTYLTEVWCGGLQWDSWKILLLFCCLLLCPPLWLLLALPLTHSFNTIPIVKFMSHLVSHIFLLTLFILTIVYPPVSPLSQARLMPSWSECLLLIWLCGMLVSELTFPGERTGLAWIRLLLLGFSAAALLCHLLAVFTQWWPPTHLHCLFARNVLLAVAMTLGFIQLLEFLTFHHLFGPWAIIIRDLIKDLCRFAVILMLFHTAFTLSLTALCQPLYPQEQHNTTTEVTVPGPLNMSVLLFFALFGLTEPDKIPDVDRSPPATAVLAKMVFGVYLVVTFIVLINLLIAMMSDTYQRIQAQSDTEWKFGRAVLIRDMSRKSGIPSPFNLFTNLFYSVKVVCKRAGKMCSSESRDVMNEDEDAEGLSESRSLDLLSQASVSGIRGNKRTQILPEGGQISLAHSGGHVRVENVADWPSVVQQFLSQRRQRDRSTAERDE
# Sequence of Procathepsin L (P07711 whole entry): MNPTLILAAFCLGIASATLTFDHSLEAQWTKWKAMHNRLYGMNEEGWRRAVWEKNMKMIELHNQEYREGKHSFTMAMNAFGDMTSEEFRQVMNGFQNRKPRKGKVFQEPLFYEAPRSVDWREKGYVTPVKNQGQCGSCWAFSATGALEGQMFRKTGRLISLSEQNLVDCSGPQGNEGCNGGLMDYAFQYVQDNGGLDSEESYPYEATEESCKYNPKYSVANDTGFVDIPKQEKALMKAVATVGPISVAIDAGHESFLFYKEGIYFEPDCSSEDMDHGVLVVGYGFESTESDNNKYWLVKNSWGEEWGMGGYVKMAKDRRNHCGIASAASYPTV
smiles,measurement,setting,value
Cc1cc(C)c(C(=O)c2ccc(C(=O)N(C(C)C)C(C)C)cc2)c(C)c1,EC50,Ion channel NompC,> 29.9 µM (not active)
same,EC50,Mucolipin-3,2.24 µM (active)
COc1ccc(/C=N/Nc2nnc(-c3ccccc3)c(O)n2)cc1,IC50,[1],> 50 µM (not active)
same,IC50,[2],> 50 µM (not active)
O=C1OC2(c3ccc(O)c(O)c3Oc3c2ccc(O)c3O)c2c(Cl)c(Cl)c(Cl)c(Cl)c21,IC50,[3],12.4 µM (active)
COC(=O)[C@@]1(Cc2ccc(F)cc2)[C@H]2c3cc(C(=O)N4CCCC4)n(Cc4ccc(C(F)(F)F)nc4)c3C[C@H]2CN1C(=O)c1ccccc1,IC50,[4],> 35 µM (not active)
same,IC50,[5],> 35 µM (not active)
Oc1ccc(/C=C/c2cc(O)cc(O)c2)cc1 [RESVERATROL],CC50,[6],26.3 µM (active)
same,EC50,[7],6.97 µM (active)
same,EC50,[8],> 300 µM (not active)
same,IC50,Procathepsin L,> 59.6 µM (not active)
same,IC50,Aspartyl aminopeptidase,2.24 µM (active)
same,EC50,[9],> 20 µM (not active)
same,AC50,[10],4.02 µM (active)
same,IC50,Large T antigen,26.2 µM (active)
same,EC50,[11],163 µM (active)
